Data published in US5834511A, “DL- DI- or tri-hydroxyphenylglycine alkyl esters for the treatment of inflammatory and allergic conditions” (Ciba Specialty Chemicals Corporation, priority 1994, dated 1998).
Read-outs that look alike come from different tables or passages of the source.

Assays:
[1] = target: T1, 5-lipoxygenase (Homo sapiens, UniProt P09917); assay: Formation of 5-HETE by 5-lipoxygenase of human polymorphonuclear leucozytes; assay type: cell-based; details: 1-^14 C-arachidonic acid (10 μmol/l)
T1 construct: 5-lipoxygenase of human polymorphonuclear leucozytes; endogenous in cells; host or cells: human polymorphonuclear leukocytes
T1 sequence (P09917 1-674): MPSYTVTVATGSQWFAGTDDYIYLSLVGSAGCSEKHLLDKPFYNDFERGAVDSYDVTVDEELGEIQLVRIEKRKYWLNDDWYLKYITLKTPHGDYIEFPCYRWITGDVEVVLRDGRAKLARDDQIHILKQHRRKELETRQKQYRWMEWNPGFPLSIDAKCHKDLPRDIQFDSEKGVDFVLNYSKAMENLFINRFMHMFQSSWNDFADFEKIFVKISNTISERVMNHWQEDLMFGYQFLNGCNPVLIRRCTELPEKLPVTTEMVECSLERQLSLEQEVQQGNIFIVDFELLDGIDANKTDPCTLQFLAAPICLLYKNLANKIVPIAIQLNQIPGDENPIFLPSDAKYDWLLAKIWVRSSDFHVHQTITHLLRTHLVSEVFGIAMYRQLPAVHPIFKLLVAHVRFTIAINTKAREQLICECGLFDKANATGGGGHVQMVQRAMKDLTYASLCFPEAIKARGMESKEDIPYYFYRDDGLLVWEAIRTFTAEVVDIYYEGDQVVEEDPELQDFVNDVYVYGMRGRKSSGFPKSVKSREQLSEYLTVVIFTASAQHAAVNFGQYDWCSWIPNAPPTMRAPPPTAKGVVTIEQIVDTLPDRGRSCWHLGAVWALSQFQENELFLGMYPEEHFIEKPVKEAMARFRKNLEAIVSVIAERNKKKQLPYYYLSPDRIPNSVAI

[2] = tested on: carrageenan oedema; assay: Carrageenan oedema of the rat paw after systemic application; assay type: in vivo, rat (Wistar); details: administered simultaneously with carrageenan, paw diameter 3 hours after inducing the oedema
[3] = target: T2, 5-LOX (Oryctolagus cuniculus, UniProt P12530); assay: Lipoxygenase activity, oxygraphic (Table 4 column headed 5-LOX; method describes 15-lipoxygenase); assay type: biochemical, rabbit
T2 construct: 15-lipoxygenase from rabbit reticulocytes; from tissue; host or cells: rabbit reticulocytes
T2 sequence (P12530 2-663): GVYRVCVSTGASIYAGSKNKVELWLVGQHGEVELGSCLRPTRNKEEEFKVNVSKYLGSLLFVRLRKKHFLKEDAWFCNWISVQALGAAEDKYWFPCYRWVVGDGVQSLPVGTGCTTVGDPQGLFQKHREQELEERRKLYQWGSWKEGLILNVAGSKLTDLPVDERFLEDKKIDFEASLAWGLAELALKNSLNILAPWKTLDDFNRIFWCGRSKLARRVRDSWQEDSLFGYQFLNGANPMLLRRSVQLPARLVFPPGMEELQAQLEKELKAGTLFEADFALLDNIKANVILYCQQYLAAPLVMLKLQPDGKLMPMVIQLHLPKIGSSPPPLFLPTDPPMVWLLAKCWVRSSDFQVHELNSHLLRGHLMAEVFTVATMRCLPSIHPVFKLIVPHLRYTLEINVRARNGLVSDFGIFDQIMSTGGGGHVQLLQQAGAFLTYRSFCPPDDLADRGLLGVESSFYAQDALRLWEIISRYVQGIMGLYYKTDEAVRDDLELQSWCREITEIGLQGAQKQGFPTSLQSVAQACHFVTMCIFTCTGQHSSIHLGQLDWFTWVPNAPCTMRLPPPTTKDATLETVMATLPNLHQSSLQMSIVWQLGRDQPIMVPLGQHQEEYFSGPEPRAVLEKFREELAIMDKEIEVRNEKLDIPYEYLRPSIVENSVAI
Method: Prostaglandin H synthase is prepared from the seminal vesicles of sheep (F. S. Van der Ouderaa, M. Buytenhek.: Methods Enzymol. 86, 60-68 (1982)), and 15-lipoxygenase from rabbit reticulocytes (T. Schewe, R. Wiesner, S. M. Rapoport: Methods Enzymol. 71, 430-441 (1981)). Both enzymatic activities are measured oxygraphically at 25° C.
The 15-lipoxygenase activity is measured using 265 μmol/l of potassium linoleate as substrate in 0.1 molar phosphate puffer at pH 7.4 and 0.2% sodium cholate (T. Schewe, H. Kuhn, S. M. Rapoport, in: Prostaglandins and Related Substances--A Practical Approach pp. 229-242, C. Benedetto, R. G. McDonald-Gibson, S. Nigam, T. F. Slater (Eds.); IRL Press, Oxford, Wash. (1987)). The compounds are freshly dissolved in 2-methoxyethanol and preincubated for 5 minutes with the enzyme preparation, and the reaction is started by addition of substrate.

[4] = target: T3, PGH Synthase (Ovis aries, UniProt P05979); assay: Prostaglandin H synthase activity, oxygraphic; assay type: biochemical, sheep; details: 30 μmol/l arachidonic acid, pH 8.0, 25° C., 5 minutes preincubation
T3 construct: prepared from the seminal vesicles of sheep; from tissue; host or cells: sheep seminal vesicles, microsomal enzyme preparation
T3 sequence (P05979 25-600): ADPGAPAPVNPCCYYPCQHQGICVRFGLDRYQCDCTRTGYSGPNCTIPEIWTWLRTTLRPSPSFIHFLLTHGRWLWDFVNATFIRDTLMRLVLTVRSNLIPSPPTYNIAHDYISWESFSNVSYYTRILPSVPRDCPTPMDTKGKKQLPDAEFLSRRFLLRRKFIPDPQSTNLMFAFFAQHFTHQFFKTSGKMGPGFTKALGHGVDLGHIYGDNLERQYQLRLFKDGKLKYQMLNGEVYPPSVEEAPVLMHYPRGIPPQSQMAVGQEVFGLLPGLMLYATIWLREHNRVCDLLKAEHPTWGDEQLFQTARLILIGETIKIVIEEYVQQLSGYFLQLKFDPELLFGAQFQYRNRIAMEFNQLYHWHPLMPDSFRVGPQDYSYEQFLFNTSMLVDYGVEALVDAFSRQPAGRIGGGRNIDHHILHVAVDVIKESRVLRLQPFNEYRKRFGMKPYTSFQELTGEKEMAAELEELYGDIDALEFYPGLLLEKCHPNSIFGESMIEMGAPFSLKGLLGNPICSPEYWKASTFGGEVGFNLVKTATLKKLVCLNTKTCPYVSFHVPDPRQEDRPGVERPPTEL
Method: Both enzymatic activities are measured oxygraphically at 25° C.

[5] = tested on: hydrogen peroxide formation in casein-stimulated peritoneal granulocytes of rats; assay: Formation of hydrogen peroxide induced by opsonated zymosan in casein-stimulated peritoneal granulocytes; assay type: cell-based, rat; details: 5×10^6 cells/ml, 30 min incubation
[6] = tested on: writhing reactions induced by acetic acid; assay: Acetic acid-induced writhing syndrome; assay type: in vivo, mouse (CBA); details: i.p., 5×10^-5 mol/kg, 30 minutes before inducement; recorded over 20 minutes
Method: The writhing reactions are induced by i.p. (=intraperitoneal) injection of 0.1 ml of 1% acetic acid/10 g and recorded over a period of 20 minutes after injection.

[7] = tested on: ear oedema induced by croton oil; assay: Croton oil ear oedema, topical application (antioedematous activity); assay type: in vivo, mouse (AB); details: 2×10 μl of a 5% ethanolic solution 1 hour after croton oil, 6 hours after inducing oedema
Method: Antioedamatous activity The assays for determining the antioedamatous activity of the novel compounds of formulae (101) and (102) prepared in Examples 1 and 2 are carried out on male AB mice (18-22 g, 9 animals per group). The ear oedema is induced by applying 2×10 μl of croton oil (1% in acetone) to the ears of the mice. After 1 hour the novel compounds (2×10 μl of a 5% ethanolic solution of each compound) are applied. After a further 5 hours (6 hours after inducing oedema) the animals are sacrificed, and pieces of ear tissue having a diameter of 8 mm are obtained. The oedema weight is determined as the difference between the contralateral ear. The percentage inhibition is calculated from a comparison with the control animals. (Table 2).

[8] = Rattus norvegicus, ip, read-out: ED50

Structure (SMILES)	IC50 [1] [µM]	ED50 [2, 8] [µmol/kg]	IC50 [3] [µM]	IC50 [4] [µM]	IC50 ([5]; Rattus norvegicus, 0.5 h) [µM]	Inhibition [6] [%]	Inhibition [7] [%]	ED50 ([2]; i.p.)	IC50 ([3]; 265 μmol/l potassium linoleate, pH 7.4, 25° C., 5 minutes preincubation (method of 15-lipoxygenase), read-out: 5-LOX IC50) [µM]	IC50 [5] [µM]
CCCCCCCCOC(=O)C(N)c1ccc(O)c(O)c1.Cl (racemic) [compound of formula (101), DL-3,4-dihydroxyphenylglycine octyl ester hydrochloride]	6.9	150	3.9	110	2.3	80.2	23.9	–	–	–
CC(=O)Oc1ccccc1C(=O)O [acetylsalicylic acid, reference compound]	–	–	–	–	–	32.3	–	15.2 10^-4 mol/kg	> 1000	> 100
CCCCCCCCOC(=O)C(N)c1cc(O)c(O)c(O)c1 (racemic) [compound of formula (102)]	1.3	80	250	85	5.3	80.7	45.7	–	–	–
